In patent publication US6403631B1, “Method and compositions for enhancing pregnancy success in an animal” (Equitech Laboratories, Inc., priority 1995, dated 2002):

Legend:
[1] = test system: conceptus membrane segments; experiment: In vitro estradiol production by day 16 conceptus membrane segments (Example 7); type: cell-based, mares
Method: Treatment with melatonin at estrus results in greater in vitro estradiol biosynthetic capability of day 16 conceptus membrane segments given androgen precursors. […] The extra-embryonic membranes were dissected into 4×4 mm^2 segments and cultured in the presence or absence of supplemental testosterone. Conceptus membrane fragments were cultured for 24 hours and the culture medium analyzed for estradiol.
Results and conclusions. Following completion of culture, conceptus membrane segments were frozen and assayed for DNA content. All estradiol concentrations measured in culture media were then adjusted for the DNA content of the appropriate conceptus membrane segment.

[2] = test system: cyclic pony mares; experiment: Melatonin at proestrus or estrus: plasma hormones in the subsequent cycle (Example 3); type: in vivo
Method: Blood samples were collected every 30 minutes and were collected daily through the next subsequent estrus and ovulation.

[3] = test system: accessory corpora lutea; experiment: Multiple melatonin administrations: accessory corpora lutea progesterone (Example 6); type: in vivo, mares; settings: treatment just prior to formation of accessory corpora lutea (day 35-45 of pregnancy)
From the text: Mares are unique in that they develop and ovulate a new cohort of follicles around day 35-45 of pregnancy. […] Mares which received melatonin treatment at estrus also received daily melatonin treatment from day +35 to day +45 of pregnancy.

[4] = test system: corpora lutea segments from cycling mares; experiment: In vitro progesterone production by corpus luteum segments (Example 8); type: cell-based; settings: 1, 10 or 100 nM melatonin; presence or absence of 100 ng hCG
Method: Corpus luteum tissue was collected surgically and was dissected into segments approximately 2×2 mm^2. Segments were incubated in the following manner: [table] At completion of culture, segments were frozen until assayed for DNA content. All media progesterone concentrations were subsequently adjusted for DNA content of the appropriate segment.

[5] = test system: marmoset corpus luteum; settings: in vivo perfusion, marmosets; cited from earlier work
[6] = test system: mares; experiment: Bolus melatonin at estrus: conception, plasma progesterone and conceptus diameter (Example 1B); type: in vivo; settings: 100 μg at estrus
Method: B. Effect on conception of bolus administration of melatonin during estrus. […] Pregnancy was monitored by ultrasonography after day 10 post-ovulation. Blood samples were collected daily from the day of treatment to day 16 post-ovulation, when conceptuses were removed. Conceptus diameter was measured daily beginning day 10 post-ovulation with ultrasound.

[7] = test system: cyclic pony mares; experiment: Melatonin at proestrus: plasma melatonin (RIA), E2, P4, LH (Example 2); settings: 100 μg at proestrus
Method: Treatments were administered at 09:59:45 at proestrus only. Test animals were divided into two groups: control (1.0 ml 0.9% saline, n=3), and melatonin (100 μg melatonin in 1.0 ml 0.9% saline, n=3). Ovarian follicular activity was monitored daily by rectal palpation and/or ultrasonography. Blood samples were collected every 10 minutes for a period of 8 hours at proestrus, estrus, and diestrus. Plasma melatonin concentrations were measured by radioimmunoassay (RIA) to determine the effect of control and melatonin treatments administered at proestrus.

[8] = test system: cows; experiment: Melatonin in cows: plasma progesterone (FIG. 5A); type: in vivo; settings: vs saline control, initial results
From the text: FIGS. 5A and 5B show the effect on plasma progesterone (P4) concentration (ng/ml), compared to a saline control, following administration of melatonin to cows and ewes in accordance with the subject invention.

[9] = test system: sheep; settings: subcutaneous, multiple daily administrations; cited from earlier work
[10] = test system: mares; experiment: Melatonin at mid-diestrus: plasma progesterone (Example 4); type: in vivo; settings: 100 μg on day 8 post-ovulation
Method: Treatments were given at 10:59:45. Daily blood sampling was performed from estrus preceding treatment to 7 days after the next subsequent ovulation. Blood samples were collected every 30 minutes for 10 hours each day of sampling.

[11] = test system: pony mares; experiment: Bolus melatonin at estrus: plasma E2, P4, LH and cycle length (Example 1A); type: in vivo
Method: A. Effect of bolus administration of melatonin on estradiol, progesterone, and luteinizing hormone levels. The effect of bolus melatonin administration during estrus on plasma estradiol (E2), progesterone (P4), and luteinizing hormone (LH) was determined. The interval from treatment to ovulation (OV1) and duration of the subsequent estrous cycle, ending at OV2, were also measured. Estrous cycles of eight pony mares were synchronized. Ovarian follicular activity was monitored daily, and sexual behavior was monitored with a stallion. Blood samples were collected daily. Upon detection of behavioral estrus and a 30 mm diameter follicle, mares were assigned to either a control group or melatonin group. Blood samples were collected for 8 hours (09:00 to 17:00) at 30 minute intervals. Melatonin-group mares were given an injection of 100 μg melatonin in 1 ml of sterile saline into the jugular vein, while control-group mares received 1 ml sterile saline.

[12] = test system: human and bovine granulosa cells; settings: in vitro; cited from earlier work
[13] = test system: corpus luteum; experiment: Corpus luteum biopsy morphology after melatonin at estrus (Example 9); type: in vivo, mares; settings: light and electron microscopy
From the text: Following collection of conceptuses as described in Examples 7 and 8, mares were taken to surgery and the corpus luteum biopsied. Biopsies were taken from each mare, control and melatonin-treated, for both light and electron microscopy.

[14] = test system: hysterectomized mares; experiment: Melatonin at estrus, morning v. afternoon, in hysterectomized mares: plasma progesterone (Example 5); type: in vivo
Method: Because hysterectomized mares are unable to generate a luteolytic secretion of prostaglandin F2α (PGF), luteal function and progesterone production continue longer than in uterine-intact mares.
The experiment was repeated in full using the same design with the exception that melatonin or control injections were administered in the afternoon rather than the morning. Blood samples were collected daily from day of treatment for 30 days post-ovulation.

[15] = test system: ewes; experiment: Bolus melatonin at estrus in ewes: plasma progesterone (Example 12); type: in vivo; settings: 400 μg i.v., 2 to 3 doses at estrus; Day 5 to Day 15 post-estrus; vs saline
Method: A. Effect of bolus administration of melatonin on progesterone levels. The effect of bolus melatonin administration during estrus on plasma progesterone was determined. The duration of the estrous cycle was also measured. Estrous cycles of ten ewes were monitored by daily behavioral monitoring with a vasectomized ram. […] Blood samples were collected daily for an entire estrous cycle. Melatonin-treated ewes (n=5) were administered 400 μg melatonin i.v. in the early morning (07:30 to 08:30hr) and late afternoon (16:30 to 17:30hr). Five ewes were treated similarly, but were administered saline as control at the same times. Estrus duration was approximately 24 to 36 hr, thus ewes were administered 2 to 3 doses of melatonin to assure treatment during estrus. Progesterone levels were higher from Day 5 to Day 15 post-estrus in melatonin-treated ewes compared with saline-treated ewes. The increased progesterone concentrations following administration of melatonin, as compared to a saline control, is shown in FIG. 5B.

[16] = test system: ewes; settings: orally administered to ewes; cited from earlier work
[17] = 100 μg i.v. at estrus, vs control

With `C[C@]12CC[C@H]3[C@@H](CCC4=CC(=O)CC[C@@]43C)[C@@H]1CC[C@@H]2O` [Testosterone, testosterone] the “estradiol production by conceptuses in vitro” value ([1]; testosterone supplied to the culture) was “significantly increased”.
In the case of `COc1ccc2[nH]cc(CCNC(C)=O)c2c1` [melatonin, N-acetyl-5-methoxytryptamine], the “plasma estradiol concentrations at time of treatment” value ([2]; 100 μg at estrus) is reported as “acute decline”, the “estradiol concentrations during subsequent estrous cycle” value ([2]; 100 μg at proestrus or estrus, p=0.001 vs control) is reported as “different” and the “plasma progesterone response, ovulation through next ovulation” value ([2]; 100 μg at proestrus or estrus, p=0.007 vs control) is reported as “higher”. For the same molecule, the “plasma LH concentrations” value ([2]; 100 μg at proestrus or estrus, vs controls) was “did not differ”, the “treatment at proestrus compared with treatment at estrus” value ([2]; 100 μg melatonin) was “not different” and the “plasma progesterone, standardized analysis” value ([2]; ovulation to day 7 and backwards from next ovulation, p=0.01 vs control) was “higher”. For the same molecule, the “progesterone production by accessory corpora lutea” value [3] was “enhanced progesterone production”, the “media progesterone concentrations, adjusted for DNA content” value [4] was “no effect” and the “progesterone production by corpus luteum” value [5] was “stimulated”. For the same molecule, the plasma progesterone concentrations ([6]; bred mares, to day 16 post-ovulation, p=0.026 vs control) was “increased”, the conceptus diameter ([6]; day 13 to 15 post-ovulation, vs control) was “larger” and the “early embryonic growth rate” value ([6]; days 10 to 13 post-ovulation, ultrasound) was “did not appear to differ”. The “estradiol concentrations in culture media, adjusted for DNA content” value ([1]; conceptuses from mares treated at estrus, no supplemental testosterone, 24 hours culture) was “did not differ”, the “estradiol production in vitro, adjusted for DNA content” value ([1]; conceptuses from mares treated at estrus, with testosterone, p=0.01 vs all other groups) was “greater” and the “plasma LH concentrations” value ([7]; 8-hour proestrus sampling, vs control) was “not different”. The “plasma melatonin concentrations vs control” value ([7]; by 3 hours post-treatment) was “not different”, the “plasma estradiol concentrations over 8-hour sampling at proestrus” value ([7]; no change in controls) was “decreased following treatment” and the “mean plasma progesterone (P4) concentrations” value ([7]; sampled at diestrus, p=0.001 vs control) was “significantly higher”. The “mean plasma estradiol concentrations” value ([7]; sampled at estrus, p=0.006 vs control) was “lower”, the “mean plasma estradiol concentrations” value ([7]; sampled at proestrus or diestrus, vs control) was “not different” and the “mean plasma progesterone (P4) concentrations” value ([7]; sampled at proestrus or estrus, vs control) was “not different”. For the same molecule, the “plasma melatonin concentrations after administration” value ([7]; vs control, p=0.0001, RIA) was “higher”, the “plasma progesterone (P4) concentrations” value [8] was “no effect” and the progesterone concentrations [9] was “increased”. The “plasma progesterone concentrations during 10-hour sampling period” value [10] was “did not alter”, the “plasma progesterone concentrations throughout rest of luteal phase” value [10] was “Nor were plasma progesterone concentrations different” and the “plasma progesterone concentrations following next subsequent ovulation” value ([10]; until day 7 post-ovulation, p=0.034) was “higher”. The “pattern of E2 over the cycle” value ([11]; 100 μg i.v. at estrus, control pattern cubic, increases at OV1 and OV2) was “quadratic, with increases noted only at OV2”, the “plasma P4 levels vs control” value ([11]; 100 μg i.v. at estrus, p<0.007) was “higher” and the “duration of subsequent estrous cycle (OV1 to OV2)” value [11, 17] was “did not differ between groups”. The “interval from treatment to OV1” value [11, 17] was “did not differ between groups”, the “plasma LH levels” value [11, 17] was “not different between groups” and the “plasma E2 secretion following administration” value ([11]; 100 μg melatonin i.v. at estrus, 8 h sampling, p<0.001) was “declined”. For the same molecule, the production of progesterone [12] was “enhanced”, the corpus luteum morphology [13] was “greater percent of cells with pleomorphic nuclei” and the plasma progesterone concentrations ([14]; 100 μg at estrus, morning or afternoon, p<0.03 vs control) was “higher”. The “plasma progesterone, melatonin-treated vs saline-treated mares” value ([14]; at approximate time of luteal regression (day 14 to 16)) was “no longer detectable differences”, the progesterone levels [15] was “higher” and the plasma progesterone concentrations [16] was “increased”.
